Reference: PubChem BioAssay AID248 (DTP/NCI, 2004)
Where “and” joins values, the source holds several entries; their conditions need not be identical. Equal values may be shown once. Toxic doses and inconclusive results are not listed. No stated cut-off is given here; in the data, active means T/C of 150% or more; inactive means T/C below 125%.

System: L1210 leukemia ip in BDF1 mice, survival T/C
Test: NCI In Vivo Anticancer Drug Screen. Data for tumor model L1210 Leukemia (intraperitoneal) in B6D2F1 (BDF1) mice
Conditions: endpoint: mean survival time, higher = longer survival
Procedure, shortened: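 Survival endpoint. Drug-treated group vs vehicle group, expressed as T divided by C. Tumor passaged by transplantation.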

[1] = dose: 50.0 mg/kg/injection, schedule: Q01DX001 (ip), vehicle: saline
[2] = dose: 100.0 mg/kg/injection, schedule: Q01DX001 (ip), vehicle: saline
[3] = dose: 200.0 mg/kg/injection, schedule: Q01DX001 (ip), vehicle: saline
[4] = dose: 400.0 mg/kg/injection, schedule: Q01DX001 (ip), vehicle: saline
[5] = dose: 100.0 mg/kg/injection, schedule: Q04DX003 (ip), vehicle: saline with Tween-80
[6] = dose: 200.0 mg/kg/injection, schedule: Q04DX003 (ip), vehicle: saline with Tween-80
[7] = dose: 400.0 mg/kg/injection, schedule: Q04DX003 (ip), vehicle: saline with Tween-80
[8] = dose: 100.0 mg/kg/injection, schedule: Q04DX003 (ip), vehicle: saline
[9] = dose: 200.0 mg/kg/injection, schedule: Q04DX003 (ip), vehicle: saline
[10] = dose: 400.0 mg/kg/injection, schedule: Q04DX003 (ip), vehicle: saline
[11] = dose: 100.0 mg/kg/injection, schedule: Q04DX002 (ip), vehicle: Klucel (hydroxypropylcellulose) (HPC)
[12] = dose: 200.0 mg/kg/injection, schedule: Q04DX002 (ip), vehicle: Klucel (hydroxypropylcellulose) (HPC)
[13] = dose: 400.0 mg/kg/injection, schedule: Q04DX002 (ip), vehicle: Klucel (hydroxypropylcellulose) (HPC)
[14] = dose: 50.0 mg/kg/injection, schedule: Q01DX001 (ip), vehicle: carboxymethylcellulose (CMC)
[15] = dose: 100.0 mg/kg/injection, schedule: Q01DX001 (ip), vehicle: carboxymethylcellulose (CMC)
[16] = dose: 200.0 mg/kg/injection, schedule: Q01DX001 (ip), vehicle: carboxymethylcellulose (CMC)
[17] = dose: 400.0 mg/kg/injection, schedule: Q01DX001 (ip), vehicle: carboxymethylcellulose (CMC)
[18] = dose: 100.0 mg/kg/injection, schedule: Q01DX009 (ip), vehicle: Klucel (hydroxypropylcellulose) (HPC)
[19] = dose: 200.0 mg/kg/injection, schedule: Q01DX009 (ip), vehicle: Klucel (hydroxypropylcellulose) (HPC)
[20] = dose: 400.0 mg/kg/injection, schedule: Q01DX009 (ip), vehicle: Klucel (hydroxypropylcellulose) (HPC)
[21] = dose: 50.0 mg/kg/injection, schedule: Q01DX009 (ip), vehicle: saline with Tween-80
[22] = dose: 100.0 mg/kg/injection, schedule: Q01DX009 (ip), vehicle: saline with Tween-80
[23] = dose: 200.0 mg/kg/injection, schedule: Q01DX009 (ip), vehicle: saline with Tween-80

Measured: T/C

O=C(CCCC(=O)NNC(=O)Nc1cccc([N+](=O)[O-])c1)NNC(=O)Nc1cccc([N+](=O)[O-])c1
inactive: [1] 102 % of control | [2] 102 % of control | [3] 96 % of control | [4] 102 % of control

CNc1cc([N+](=O)[O-])ccc1OCc1ccccc1
inactive: dose: 75.0 mg/kg/injection, schedule: Q01DX009 (ip), vehicle: saline with Tween-80 87 % of control | [5] 89 % of control | dose: 150.0 mg/kg/injection, schedule: Q01DX009 (ip), vehicle: saline with Tween-80 87 % of control | [6] 92 % of control | dose: 300.0 mg/kg/injection, schedule: Q01DX009 (ip), vehicle: saline with Tween-80 91 % of control | [7] 101 % of control

NCCCN=C(N)C(N)=NCCCN
inactive: [8] 98 % of control | [9] 95 % of control | [10] 104 % of control

N#CC1c2ccccc2-c2ccccc2N1C(=O)c1ccccc1 (centres undefined)
inactive: [11] 93 % of control | [12] 96 % of control | [13] 107 % of control

c1ccc(C(CC(c2ccccc2)(c2ccccc2)c2ccccc2)(c2ccccc2)c2ccccc2)cc1
inactive: [2] 96 % of control | [3] 94 % of control | [4] 105 % of control

COc1cc2c(cc1OC(C)=O)CCCCC2=O
inactive: [2] 101 % of control | [3] 103 % of control | [4] 101 % of control

Nc1c(S(=O)(=O)O)cc(Nc2cccc(CO)c2)c2c1C(=O)c1ccccc1C2=O
inactive: dose: 5.0 mg/kg/injection, schedule: Q01DX001 (ip), vehicle: saline 105 % of control | dose: 10.0 mg/kg/injection, schedule: Q01DX001 (ip), vehicle: saline 103 % of control | dose: 20.0 mg/kg/injection, schedule: Q01DX001 (ip), vehicle: saline 101 % of control | dose: 40.0 mg/kg/injection, schedule: Q01DX001 (ip), vehicle: saline 94 % of control | dose: 80.0 mg/kg/injection, schedule: Q01DX001 (ip), vehicle: saline 95 % of control | [2] 95 % of control | [8] 101 % of control | [3] 93 % of control | [9] 104 % of control | [10] 92 % of control

CCC(=O)CC(C)CC (centres undefined)
inactive: [14] 94 % of control | [15] 102 % of control | [16] 91 % of control | [17] 102 % of control

O=C1CCS(=O)(=O)CC1
inactive: dose: 50.0 mg/kg/injection, schedule: Q04DX003 (ip), vehicle: saline with Tween-80 92 % of control | [5] 90 % of control | [6] 89 % of control

Cc1ccc(C(=O)N/N=C/c2ccc(Cl)cc2Cl)cc1
inactive: [11] 100 % of control | [12] 95 % of control | [13] 95 % of control

C[n+]1c(-c2ccc(Cl)cc2Cl)c2cc(N)ccc2c2ccccc21
inactive: dose: 3.12 mg/kg/injection, schedule: Q01DX009 (ip), vehicle: water 100 % of control | dose: 6.25 mg/kg/injection, schedule: Q01DX009 (ip), vehicle: water 91 % of control | dose: 12.5 mg/kg/injection, schedule: Q01DX009 (ip), vehicle: water 102 % of control and 105 % of control | dose: 12.5 mg/kg/injection, schedule: Q04DX003 (ip), vehicle: water 100 % of control | dose: 25.0 mg/kg/injection, schedule: Q01DX009 (ip), vehicle: water 120 % of control and 86 % of control | dose: 25.0 mg/kg/injection, schedule: Q04DX003 (ip), vehicle: water 90 % of control

COC(OC)c1nc(N)[nH]c(=O)c1Cc1cccc2ccccc12
inactive: [11] 97 % of control | [12] 86 % of control | [13] 105 % of control

CC(=O)N(C)c1ccc(NC(=O)/C=C/c2ccccc2)cc1
inactive: [18] 95 % of control | [19] 101 % of control | [20] 105 % of control

C/C=C/C(OC(C)=O)OC(C)=O
inactive: [21] 101 % of control | [22] 101 % of control | [23] 101 % of control

NS(=O)(=O)c1ccc(N=Nc2nc3[nH]c(=O)[nH]c(=O)c3[nH]2)cc1
inactive: [21] 97 % of control | [22] 94 % of control | [23] 94 % of control

CCOc1ccc(N=NS(=O)(=O)O)cc1
inactive: dose: 1.25 mg/kg/injection, schedule: Q01DX009 (ip), vehicle: saline with Tween-80 94 % of control | dose: 2.5 mg/kg/injection, schedule: Q01DX009 (ip), vehicle: saline with Tween-80 91 % of control | dose: 5.0 mg/kg/injection, schedule: Q01DX009 (ip), vehicle: saline with Tween-80 94 % of control

CCCCCCCCCCCCC1CC(=O)OC1=O (centres undefined)
inactive: [18] 97 % of control | dose: 100.0 mg/kg/injection, schedule: Q04DX003 (ip), vehicle: Klucel (hydroxypropylcellulose) (HPC) 93 % of control | [19] 95 % of control | dose: 200.0 mg/kg/injection, schedule: Q04DX003 (ip), vehicle: Klucel (hydroxypropylcellulose) (HPC) 91 % of control

N=C(N)c1ccc(-c2nc3ccc(C(=N)N)cc3[nH]2)cc1
inactive: dose: 12.5 mg/kg/injection, schedule: Q04DX003 (ip), vehicle: saline 100 % of control and 103 % of control | dose: 25.0 mg/kg/injection, schedule: Q04DX003 (ip), vehicle: saline 100 % of control and 103 % of control | dose: 50.0 mg/kg/injection, schedule: Q04DX003 (ip), vehicle: saline 100 % of control and 103 % of control

Nc1ccc(P(=O)(O)O)cc1
inactive: [14] 101 % of control | [15] 97 % of control | [16] 91 % of control | [17] 91 % of control

Cc1nc2cccc3ccc4c5ccccc5cc1c4c32
inactive: [5] 92 % of control | [6] 92 % of control | [7] 87 % of control

O=c1[nH]cc(CCC(F)(F)F)c(=O)[nH]1
inactive: dose: 100.0 mg/kg/injection, schedule: Q04DX002 (ip), vehicle: sodium bicarbonate 102 % of control | dose: 200.0 mg/kg/injection, schedule: Q04DX002 (ip), vehicle: sodium bicarbonate 102 % of control

Cc1ccc(NC(=S)/C(=C(/[O-])c2ccc([N+](=O)[O-])cc2)[n+]2ccccc2)c(C)c1
inactive: [18] 101 % of control | [19] 97 % of control | [20] 95 % of control

O=[N+]([O-])c1ccc(-c2ccc(Br)cc2)cc1
inactive: [22] 100 % of control | [5] 101 % of control | [23] 86 % of control | [6] 94 % of control | [7] 103 % of control

CN1CCC2(CC1)C(=O)N(CC1COc3ccccc3O1)C(=O)C2c1ccccc1 (centres undefined)
inactive: dose: 100.0 mg/kg/injection, schedule: Q01DX001 (ip), vehicle: Klucel (hydroxypropylcellulose) (HPC) 99 % of control

C/C(=C\COc1ccc2ccc(=O)oc2c1)C1=CC(=O)C(C)(C)O1
inactive: [22] 96 % of control | [5] 96 % of control | [23] 94 % of control | [6] 91 % of control | dose: 400.0 mg/kg/injection, schedule: Q01DX009 (ip), vehicle: saline with Tween-80 97 % of control | [7] 94 % of control

N=[N+]=CC(=O)CC(N)C(=O)O (centres undefined)
inactive: [1] 94 % of control | dose: 50.0 mg/kg/injection, schedule: Q01DX009 (ip), vehicle: saline 104 % of control | [2] 94 % of control | dose: 100.0 mg/kg/injection, schedule: Q01DX009 (ip), vehicle: saline 107 % of control | dose: 128.0 mg/kg/injection, schedule: Q03HX024 (ip), vehicle: saline 117 % of control | [3] 99 % of control | dose: 200.0 mg/kg/injection, schedule: Q01DX009 (ip), vehicle: saline 113 % of control | dose: 256.0 mg/kg/injection, schedule: Q04DX003 (ip), vehicle: saline 102 % of control | [4] 96 % of control | dose: 512.0 mg/kg/injection, schedule: Q04DX003 (ip), vehicle: saline 105 % of control | dose: 1024.0 mg/kg/injection, schedule: Q04DX003 (ip), vehicle: saline 108 % of control

Cc1ccc(Nc2nc(N)nc(N)c2C=O)cc1
inactive: dose: 50.0 mg/kg/injection, schedule: Q01DX001 (ip), vehicle: alcohol 89 % of control | dose: 100.0 mg/kg/injection, schedule: Q01DX001 (ip), vehicle: alcohol 86 % of control | dose: 200.0 mg/kg/injection, schedule: Q01DX001 (ip), vehicle: alcohol 102 % of control | dose: 400.0 mg/kg/injection, schedule: Q01DX001 (ip), vehicle: alcohol 86 % of control
